These results are taken from patent US20170196998A1, “NANOPARTICLE CONTRAST AGENT FOR EARLY DIAGNOSIS OF ALZHEIMER'S DISEASE BY MAGNETIC RESONANCE IMAGING (MRI)” (The Chinese University of Hong Kong, priority 2016, published 2017).

The target in one data set is amyloid plaques (Homo sapiens, UniProt P05067). Put plainly: Confocal fluorescent and phase-contrast imaging of amyloid plaque binding on consecutive brain sections. The settings on record: applied to consecutive sections of APP transgenic mouse brain, FIG. 5. The source says:
From top to bottom: Thioflavin T, curcumin, and curcumin-conjugated iron oxide.
The formulation of Curcumin-conjugated magnetic nanoparticles is described herein.

A short description of data set [1]: Adsorption isotherm of curcumin on iron oxide (Langmuir model). Type of data set: physicochemical. To be noted: room temperature, monolayer. How it is done: Based on the absorption isotherm study, curcumin preferentially binds the iron oxide surface, with a calculated maximum loading of 75 mg of curcumin per gram of iron oxide. FIGS. 2 & 3 show the adsorption isotherm and Langmuir model, which indicate that Curcumin is forming a monolayer and binds at a homogeneous site on the iron oxide surface.

amyloid plaques, sequence (P05067 672-713 limits assumed): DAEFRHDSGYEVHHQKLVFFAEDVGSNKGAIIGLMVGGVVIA

For `COc1cc(/C=C/C(=O)CC(=O)/C=C/c2ccc(O)c(OC)c2)ccc1O` [curcumin], the amyloid plaque binding entry on amyloid plaques is “bind amyloid plaques”. The “calculated maximum loading of curcumin on iron oxide” value in data set [1] is listed as 75 mg of curcumin per gram of iron oxide.
In the case of `Cc1ccc2c(c1)sc(-c1ccc(N(C)C)cc1)[n+]2C.[Cl-]` [Thioflavin T], at amyloid plaques, the amyloid plaque binding entry is “bind amyloid plaques”.
